Laboratory results published in ChEMBL document CHEMBL4507256 (2021).

Legend:
[1] = test system: Tyrosine-protein kinase ABL1 (Homo sapiens), P00519 [T315I]; conditions: Compound concentration 1000.0 nM
[2] = target: Activin receptor type-1B (Homo sapiens) (UniProt P36896); conditions: Compound concentration 1000.0 nM
[3] = target: Activin receptor type-1-like (Homo sapiens) (UniProt P37023); conditions: Compound concentration 1000.0 nM
[4] = target: 5'-AMP-activated protein kinase catalytic subunit alpha-2 (Homo sapiens) (UniProt P54646); conditions: Compound concentration 1000.0 nM
[5] = target: Cyclin-dependent kinase 8 (Homo sapiens) (UniProt P49336); conditions: Compound concentration 1000.0 nM
[6] = target: Cyclin-dependent kinase-like 3 (Homo sapiens) (UniProt Q8IVW4); conditions: Compound concentration 1000.0 nM
[7] = test system: Epidermal growth factor receptor (Homo sapiens), P00533 [UNDEFINED MUTATION]; conditions: Compound concentration 1000.0 nM
Epidermal growth factor receptor (Homo sapiens), P00533 [UNDEFINED MUTATION], sequence (P00533 whole entry, looked up, change not shown): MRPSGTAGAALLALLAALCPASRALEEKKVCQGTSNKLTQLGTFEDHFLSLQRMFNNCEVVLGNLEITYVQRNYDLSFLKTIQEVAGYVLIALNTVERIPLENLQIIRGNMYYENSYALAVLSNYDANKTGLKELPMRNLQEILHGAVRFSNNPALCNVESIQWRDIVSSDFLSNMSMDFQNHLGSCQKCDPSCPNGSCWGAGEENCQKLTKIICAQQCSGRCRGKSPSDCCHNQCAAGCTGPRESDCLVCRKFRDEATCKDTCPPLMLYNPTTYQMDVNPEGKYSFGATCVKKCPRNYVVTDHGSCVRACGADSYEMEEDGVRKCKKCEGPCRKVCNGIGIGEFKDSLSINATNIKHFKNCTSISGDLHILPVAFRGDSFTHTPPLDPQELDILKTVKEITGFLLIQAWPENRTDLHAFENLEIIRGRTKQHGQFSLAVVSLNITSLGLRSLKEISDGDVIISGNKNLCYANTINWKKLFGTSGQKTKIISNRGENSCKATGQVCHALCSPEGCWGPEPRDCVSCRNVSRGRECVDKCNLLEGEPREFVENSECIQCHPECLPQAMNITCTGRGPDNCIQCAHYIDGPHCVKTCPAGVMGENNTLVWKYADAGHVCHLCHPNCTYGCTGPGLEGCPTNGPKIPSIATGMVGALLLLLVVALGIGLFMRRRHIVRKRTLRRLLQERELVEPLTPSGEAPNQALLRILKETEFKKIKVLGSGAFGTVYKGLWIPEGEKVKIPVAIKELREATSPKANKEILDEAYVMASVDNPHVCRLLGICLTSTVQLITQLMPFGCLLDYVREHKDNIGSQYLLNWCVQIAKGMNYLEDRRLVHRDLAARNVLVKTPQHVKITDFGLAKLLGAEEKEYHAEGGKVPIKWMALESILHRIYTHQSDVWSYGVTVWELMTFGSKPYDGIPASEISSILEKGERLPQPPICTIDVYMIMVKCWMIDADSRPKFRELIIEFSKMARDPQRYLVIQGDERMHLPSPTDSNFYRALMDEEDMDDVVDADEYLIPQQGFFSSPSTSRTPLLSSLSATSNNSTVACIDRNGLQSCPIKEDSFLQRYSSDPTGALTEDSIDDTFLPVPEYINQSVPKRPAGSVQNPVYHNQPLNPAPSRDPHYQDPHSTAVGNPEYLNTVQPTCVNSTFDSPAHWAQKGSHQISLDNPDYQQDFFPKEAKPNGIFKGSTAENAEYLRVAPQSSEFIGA

[8] = target: Receptor tyrosine-protein kinase erbB-3 (Homo sapiens) (UniProt P21860); conditions: Compound concentration 1000.0 nM
[9] = target: Mitogen-activated protein kinase 7 (Homo sapiens) (UniProt Q13164); conditions: Compound concentration 1000.0 nM
[10] = target: Tyrosine-protein kinase Fes/Fps (Homo sapiens) (UniProt P07332); conditions: Compound concentration 1000.0 nM
[11] = target: Fibroblast growth factor receptor 3 (Homo sapiens) (UniProt P22607); conditions: Compound concentration 1000.0 nM
[12] = target: Receptor-type tyrosine-protein kinase FLT3 (Homo sapiens) (UniProt P36888); conditions: Compound concentration 1000.0 nM
[13] = target: Vascular endothelial growth factor receptor 3 (Homo sapiens) (UniProt P35916); conditions: Compound concentration 1000.0 nM
[14] = target: Tyrosine-protein kinase Fyn (Homo sapiens) (UniProt P06241); conditions: Compound concentration 1000.0 nM
[15] = target: Glycogen synthase kinase-3 alpha (Homo sapiens) (UniProt P49840); conditions: Compound concentration 1000.0 nM
[16] = target: Inhibitor of nuclear factor kappa-B kinase subunit alpha (Homo sapiens) (UniProt O15111); conditions: Compound concentration 1000.0 nM
[17] = target: Insulin receptor (Homo sapiens) (UniProt P06213); conditions: Compound concentration 1000.0 nM
Insulin receptor (Homo sapiens), sequence (P06213 28-758 limits assumed): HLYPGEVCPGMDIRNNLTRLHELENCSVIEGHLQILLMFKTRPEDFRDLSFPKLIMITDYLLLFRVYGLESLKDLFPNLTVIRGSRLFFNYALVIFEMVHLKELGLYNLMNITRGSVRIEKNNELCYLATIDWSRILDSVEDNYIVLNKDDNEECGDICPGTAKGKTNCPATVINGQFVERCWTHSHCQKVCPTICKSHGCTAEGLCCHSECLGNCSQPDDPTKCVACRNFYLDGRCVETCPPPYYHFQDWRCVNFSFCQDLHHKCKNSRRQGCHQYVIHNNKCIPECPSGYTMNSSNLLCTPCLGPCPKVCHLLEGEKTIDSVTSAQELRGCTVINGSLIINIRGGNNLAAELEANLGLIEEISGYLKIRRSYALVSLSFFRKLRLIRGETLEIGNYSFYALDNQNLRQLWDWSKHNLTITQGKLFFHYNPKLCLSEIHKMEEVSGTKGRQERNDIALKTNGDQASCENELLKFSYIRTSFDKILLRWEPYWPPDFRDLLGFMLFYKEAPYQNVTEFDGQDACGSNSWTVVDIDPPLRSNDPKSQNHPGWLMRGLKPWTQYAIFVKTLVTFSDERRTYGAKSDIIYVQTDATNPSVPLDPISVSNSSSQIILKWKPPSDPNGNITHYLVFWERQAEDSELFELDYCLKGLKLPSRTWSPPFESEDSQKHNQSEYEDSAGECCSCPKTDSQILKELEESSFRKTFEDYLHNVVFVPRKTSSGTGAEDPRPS
Insulin receptor (Homo sapiens), sequence (P06213 763-1382 limits assumed): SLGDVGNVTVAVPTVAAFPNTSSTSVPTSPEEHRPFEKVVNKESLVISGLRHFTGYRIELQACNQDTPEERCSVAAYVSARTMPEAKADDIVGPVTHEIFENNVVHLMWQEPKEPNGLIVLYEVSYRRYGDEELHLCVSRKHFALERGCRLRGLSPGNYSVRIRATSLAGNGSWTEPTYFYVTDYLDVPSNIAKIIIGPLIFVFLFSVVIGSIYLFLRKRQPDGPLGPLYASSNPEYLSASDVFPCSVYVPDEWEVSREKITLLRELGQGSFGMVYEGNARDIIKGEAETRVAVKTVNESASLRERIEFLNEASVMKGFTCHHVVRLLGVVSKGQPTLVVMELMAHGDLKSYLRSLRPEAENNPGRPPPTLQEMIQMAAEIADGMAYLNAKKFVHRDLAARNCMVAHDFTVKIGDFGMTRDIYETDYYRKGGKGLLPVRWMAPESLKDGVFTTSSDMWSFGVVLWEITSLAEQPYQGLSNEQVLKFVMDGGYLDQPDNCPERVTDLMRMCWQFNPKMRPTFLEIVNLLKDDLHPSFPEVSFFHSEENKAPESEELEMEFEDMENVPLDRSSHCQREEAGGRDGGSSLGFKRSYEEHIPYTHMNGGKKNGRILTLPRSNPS

[18] = target: Tyrosine-protein kinase JAK1 (Homo sapiens) (UniProt P23458); conditions: Compound concentration 1000.0 nM
[19] = target: Mitogen-activated protein kinase kinase kinase kinase 4 (Homo sapiens) (UniProt O95819); conditions: Compound concentration 1000.0 nM
[20] = target: Myosin light chain kinase (Homo sapiens) (UniProt Q32MK0); conditions: Compound concentration 1000.0 nM
[21] = target: Serine/threonine-protein kinase 4 (Homo sapiens) (UniProt Q13043); conditions: Compound concentration 1000.0 nM
[22] = target: Mitogen-activated protein kinase 13 (Homo sapiens) (UniProt O15264); conditions: Compound concentration 1000.0 nM
[23] = test system: Phosphatidylinositol 4,5-bisphosphate 3-kinase catalytic subunit alpha isoform (Homo sapiens), P42336 [C420R]; conditions: Compound concentration 1000.0 nM
Phosphatidylinositol 4,5-bisphosphate 3-kinase catalytic subunit alpha isoform (Homo sapiens), P42336 [C420R], sequence (P42336 whole entry C420R, canonical isoform): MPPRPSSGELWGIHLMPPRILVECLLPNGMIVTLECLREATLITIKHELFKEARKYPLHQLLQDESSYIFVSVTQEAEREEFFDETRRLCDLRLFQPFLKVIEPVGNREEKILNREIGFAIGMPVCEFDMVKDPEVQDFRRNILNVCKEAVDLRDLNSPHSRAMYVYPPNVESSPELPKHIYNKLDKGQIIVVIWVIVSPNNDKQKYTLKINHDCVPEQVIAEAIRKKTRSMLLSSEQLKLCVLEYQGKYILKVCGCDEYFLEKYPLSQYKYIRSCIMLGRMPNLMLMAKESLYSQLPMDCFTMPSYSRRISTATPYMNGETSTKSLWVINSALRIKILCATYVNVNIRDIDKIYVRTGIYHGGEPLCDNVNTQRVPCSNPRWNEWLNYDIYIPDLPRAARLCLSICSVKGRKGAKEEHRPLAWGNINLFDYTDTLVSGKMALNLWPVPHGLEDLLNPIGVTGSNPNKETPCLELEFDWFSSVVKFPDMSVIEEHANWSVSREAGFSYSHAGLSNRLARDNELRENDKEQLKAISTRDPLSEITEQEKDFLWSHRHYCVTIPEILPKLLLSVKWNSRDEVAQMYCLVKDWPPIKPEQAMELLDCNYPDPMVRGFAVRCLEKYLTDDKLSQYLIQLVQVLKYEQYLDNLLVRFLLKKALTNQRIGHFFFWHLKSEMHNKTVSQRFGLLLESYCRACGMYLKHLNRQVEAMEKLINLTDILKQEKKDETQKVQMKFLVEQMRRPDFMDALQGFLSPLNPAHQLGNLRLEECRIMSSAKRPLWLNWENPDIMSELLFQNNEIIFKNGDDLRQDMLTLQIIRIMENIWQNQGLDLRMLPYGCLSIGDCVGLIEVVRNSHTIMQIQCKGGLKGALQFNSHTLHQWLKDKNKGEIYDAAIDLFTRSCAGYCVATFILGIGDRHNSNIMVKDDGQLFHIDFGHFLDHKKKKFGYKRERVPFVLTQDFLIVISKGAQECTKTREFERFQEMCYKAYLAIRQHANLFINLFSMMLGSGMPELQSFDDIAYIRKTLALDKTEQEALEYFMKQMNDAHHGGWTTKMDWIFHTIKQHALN

[24] = test system: Phosphatidylinositol 4,5-bisphosphate 3-kinase catalytic subunit alpha isoform (Homo sapiens), P42336 [H1047Y]; conditions: Compound concentration 1000.0 nM
Phosphatidylinositol 4,5-bisphosphate 3-kinase catalytic subunit alpha isoform (Homo sapiens), P42336 [H1047Y], sequence (P42336 whole entry H1047Y, canonical isoform): as the sequence (P42336 whole entry C420R, canonical isoform) above, with R420C, H1047Y counted along it

[25] = target: Phosphatidylinositol 4,5-bisphosphate 3-kinase catalytic subunit gamma isoform (Homo sapiens) (UniProt P48736); conditions: Compound concentration 1000.0 nM
[26] = target: Serine/threonine-protein kinase pim-1 (Homo sapiens) (UniProt P11309); conditions: Compound concentration 1000.0 nM
Serine/threonine-protein kinase pim-1 (Homo sapiens), sequence (P11309 whole entry, looked up): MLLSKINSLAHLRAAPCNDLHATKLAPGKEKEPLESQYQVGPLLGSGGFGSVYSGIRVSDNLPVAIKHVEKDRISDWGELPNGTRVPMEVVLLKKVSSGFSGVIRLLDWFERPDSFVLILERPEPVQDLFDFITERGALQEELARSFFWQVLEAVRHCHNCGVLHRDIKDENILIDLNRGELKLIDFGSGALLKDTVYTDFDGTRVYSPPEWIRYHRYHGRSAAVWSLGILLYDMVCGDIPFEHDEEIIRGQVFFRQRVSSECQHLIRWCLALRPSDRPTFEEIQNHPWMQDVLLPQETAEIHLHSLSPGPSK

[27] = target: Serine/threonine-protein kinase D1 (Homo sapiens) (UniProt Q15139); conditions: Compound concentration 1000.0 nM
Serine/threonine-protein kinase D1 (Homo sapiens), sequence (Q15139 whole entry): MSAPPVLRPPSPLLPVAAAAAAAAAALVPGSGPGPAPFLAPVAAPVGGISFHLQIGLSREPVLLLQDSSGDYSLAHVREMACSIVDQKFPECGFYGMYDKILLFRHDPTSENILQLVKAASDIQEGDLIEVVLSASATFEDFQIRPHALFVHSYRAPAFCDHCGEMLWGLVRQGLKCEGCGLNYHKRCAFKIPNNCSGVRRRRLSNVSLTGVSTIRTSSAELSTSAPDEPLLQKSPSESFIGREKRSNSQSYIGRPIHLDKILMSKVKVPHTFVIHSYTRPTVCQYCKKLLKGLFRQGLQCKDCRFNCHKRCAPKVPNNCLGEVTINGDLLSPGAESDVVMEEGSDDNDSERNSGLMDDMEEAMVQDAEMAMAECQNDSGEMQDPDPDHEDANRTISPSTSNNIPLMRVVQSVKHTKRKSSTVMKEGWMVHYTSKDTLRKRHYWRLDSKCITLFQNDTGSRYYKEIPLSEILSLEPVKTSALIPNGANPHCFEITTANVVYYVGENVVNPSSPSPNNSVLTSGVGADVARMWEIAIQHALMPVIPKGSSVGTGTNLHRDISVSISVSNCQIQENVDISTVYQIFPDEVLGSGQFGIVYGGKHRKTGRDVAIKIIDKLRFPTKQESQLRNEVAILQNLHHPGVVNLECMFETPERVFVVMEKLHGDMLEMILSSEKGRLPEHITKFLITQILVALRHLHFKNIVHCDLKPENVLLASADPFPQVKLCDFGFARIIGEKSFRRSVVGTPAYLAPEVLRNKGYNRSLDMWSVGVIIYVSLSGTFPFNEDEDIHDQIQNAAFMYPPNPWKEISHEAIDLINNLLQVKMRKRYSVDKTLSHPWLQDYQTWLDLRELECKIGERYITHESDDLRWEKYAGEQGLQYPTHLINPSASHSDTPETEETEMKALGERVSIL

[28] = target: cGMP-dependent protein kinase 1 (Homo sapiens) (UniProt Q13976); conditions: Compound concentration 1000.0 nM
[29] = target: Tyrosine-protein kinase Tec (Homo sapiens) (UniProt P42680); conditions: Compound concentration 1000.0 nM
[30] = target: Serine/threonine-protein kinase ULK1 (Homo sapiens) (UniProt O75385); conditions: Compound concentration 1000.0 nM
[31] = target: Serine/threonine-protein kinase WNK2 (Homo sapiens) (UniProt Q9Y3S1); conditions: Compound concentration 1000.0 nM
[32] = target: 5-hydroxytryptamine receptor 2B (Homo sapiens) (UniProt P41595); conditions: Compound concentration 10.0 uM
[33] = target: 5-hydroxytryptamine receptor 6 (Homo sapiens) (UniProt P50406); conditions: Compound concentration 10.0 uM
[34] = target: Kappa-type opioid receptor (Homo sapiens) (UniProt P41145); conditions: Compound concentration 10.0 uM
[35] = target: T1, Muscarinic acetylcholine receptor M4 (Homo sapiens) (UniProt P08173); conditions: Compound concentration 10.0 uM
T1 sequence (whole entry): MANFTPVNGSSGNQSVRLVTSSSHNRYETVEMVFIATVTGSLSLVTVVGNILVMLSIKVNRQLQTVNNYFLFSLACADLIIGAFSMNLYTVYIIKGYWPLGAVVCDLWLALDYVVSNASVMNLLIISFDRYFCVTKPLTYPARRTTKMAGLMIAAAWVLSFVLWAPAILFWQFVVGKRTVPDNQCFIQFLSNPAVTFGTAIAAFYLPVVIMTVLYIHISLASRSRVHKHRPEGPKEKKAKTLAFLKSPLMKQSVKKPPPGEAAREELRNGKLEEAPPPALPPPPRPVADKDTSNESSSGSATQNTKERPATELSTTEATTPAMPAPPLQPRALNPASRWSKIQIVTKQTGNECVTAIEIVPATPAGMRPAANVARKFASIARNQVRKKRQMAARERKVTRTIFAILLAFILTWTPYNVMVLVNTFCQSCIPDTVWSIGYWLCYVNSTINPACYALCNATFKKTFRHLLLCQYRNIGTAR

CCC(=N\O)/C(C)=C/c1ccc(F)c(C)c1 [A-226]
inactive: residual activity [1] 88% | residual activity [2] 82% | residual activity [3] 98% | residual activity [4] 100% | residual activity [5] 73% | residual activity [6] 86% | residual activity [7] 65% | residual activity [8] 76% | residual activity [9] 100% | residual activity [10] 93% | residual activity [11] 96% | residual activity [12] 93% | residual activity [13] 80% | residual activity [14] 72% | residual activity [15] 100% | residual activity [16] 95% | residual activity [17] 100% | residual activity [18] 100% | residual activity [19] 100% | residual activity [20] 100% | residual activity [21] 70% | residual activity [22] 100% | residual activity [23] 100% | residual activity [24] 100% | residual activity [25] 100% | residual activity [26] 70% | residual activity [27] 100% | residual activity [28] 100% | residual activity [29] 100% | residual activity [30] 96% | residual activity [31] 100% | inhibition [32] 43.8% | inhibition [33] -3.93% | inhibition [34] 8.6% | inhibition [35] 15.4%

CCC(=N\O)/C(C)=C/c1ccc(F)cc1 [A-079]
inactive: residual activity [1] 87% | residual activity [2] 77% | residual activity [3] 76% | residual activity [4] 88% | residual activity [5] 100% | residual activity [6] 80% | residual activity [7] 67% | residual activity [8] 100% | residual activity [9] 88% | residual activity [10] 73% | residual activity [11] 91% | residual activity [12] 100% | residual activity [13] 100% | residual activity [14] 100% | residual activity [15] 100% | residual activity [16] 67% | residual activity [17] 100% | residual activity [18] 88% | residual activity [19] 97% | residual activity [20] 86% | residual activity [21] 78% | residual activity [22] 92% | residual activity [23] 79% | residual activity [24] 82% | residual activity [25] 100% | residual activity [26] 85% | residual activity [27] 71% | residual activity [28] 100% | residual activity [29] 89% | residual activity [30] 85% | residual activity [31] 80% | inhibition [32] 24.7% | inhibition [33] 15.6% | inhibition [34] 15.7% | inhibition [35] 18.2%
